# Source: patent US5190741A, “Agents for diagnosing and treating melanomas, aromatic halogenated derivatives usable as such agents and their preparation” (Institut National de la Sante et de la Recherche Medicale …, priority 1989, dated 1993)
# Like-named read-outs stand apart in the source and are kept apart here.
# Assays:
# [1] = LD50 determination, i.v. (Karber and Behrens); details: mouse, in vivo, iv
# Source text: (§1) The determination of the LD50 is made in the mouse after i.v. injection of the molecules according to the methodology described by Karber and Behrens.
# (§2) 6 weeks old OF 1 male mice
# [2] = test system: 6 weeks old OF 1 male mice; experiment: LD50 determination, i.v. (Karber and Behrens); details: mouse, in vivo, iv
# Source text: as §1, §2
# B16 murine melanoma = experiment: Autoradiograms, C57 BL6 mice bearing B16; type: in vivo, mouse
# Description: (§3) The autoradiograms are carried out in mice bearing grafted melanomas:
# a. C57 BL6 bearing the B16 murine melanoma.
# (§4) The animals bearing grafted tumors receive the labelled compounds in the form of the hydrochloride in saline solution (3.7 to 5×10^5 Bq/animal) in a caudal vein. At different time intervals after the administration of the compounds (from 15 minutes to 24 hours) the mice are anesthetized with ether and plunged into liquid nitrogen.
# (§5) 30 μm sections, parallel to a sagittal plane, are prepared in a freezing microtome (TS 260, SLEE) according to the protocol described by Ullberg.
# [3] = test system: Beu melanic human melanoma; experiment: Autoradiograms, nu/nu SSCUP nude mice bearing Beu; type: in vivo
# Description: as §3
# b. nu/nu SSCUP nudes bearing heterotransplants of melanic (Beu) or amelanic (Dau) human melanomas).
# as §4, §5
# [4] = Tissue distribution in Swiss nu/nu SSCUP mice bearing Dau; type: in vivo, human; details: mouse, iv, 3 umol/animal
# Description: The study of the tissue distribution of the ^125 I labelled compounds was performed in mice bearing grafted melanomas (cf. autoradiograms above). […] The animals are sacrificed at different time intervals of 1 to 24 hours after the injection. The blood is collected and the principal organs are excised. Aliquots are weighed and the radioactivity of the samples is measured in a […] 1191 counter (analytic tracer). The counting yield for iodine 125 is 60%. The results are expressed: as a percentage of the injected dose bound per g of tissue (% ID/g); in the form of the ratios [formula] This ratio reflects more precisely the selectivity of a molecule for an organ (tables 2, 4, 6, 8, 10 and 12).
# [5] = test system: Beu melanic human melanoma; experiment: Scintillation imaging, nu/nu SSCUP nude mice bearing Beu; type: in vivo; details: ^123 I label
# Source text: The mice bearing grafted tumors are anesthetized by the i.p. injection of sodium pentobarbital 1/5 and immobilized under a scintillation camera (Gammatome II, CGR) equipped with a pinhole 3-360 collimator, sensitivity 3.2 10^-4.
# nu/nu SSCUP nudes bearing human melanomas Beu and Dau.
# The scanning observations have also been carried out after the injection of B into the following mice:
# nu/nu SSCUP nudes bearing the Beu heterotransplant.
# [6] = intestine, read-out: intestine % ID/g
# [7] = kidney, read-out: kidney % ID/g
# [8] = muscle, read-out: muscle % ID/g
# [9] = pancreas, read-out: pancreas % ID/g
# [10] = plasma, read-out: plasma % ID/g
# [11] = spleen, read-out: spleen % ID/g
# [12] = stomach, read-out: stomach % ID/g
# [13] = submaxillary glands, read-out: submaxillary glands % ID/g
smiles,measurement,setting,value
"CCN(CC)CCNC(=O)c1ccc(I)cc1 [Derivative A, N-(2-diethylaminoethyl) 4-iodo benzamide]",LD50,[1],125 mg/kg
same,LD 0,[2],75 mg/kg
same,LD 100,[2],150 mg/kg
same,darkening of the film at the tumor,B16 murine melanoma; 1 to 4 h after i.v.,considerable and inhomogeneous darkening of the film
same,tumor visibility on autoradiogram,B16 murine melanoma; 24 h after i.v.,still visible
same,darkening of the film at the tumor,[3]; 1 to 4 h after i.v.,Identical images
same,tumor visibility on autoradiogram,[3]; 24 h after i.v.,we can no longer see darkening of the film
same,tissue uptake at 1 h,"[4]; blood, read-out: blood % ID/g",0.89 %ID/g
same,tissue uptake at 2 h,"[4]; blood, read-out: blood % ID/g",0.52 %ID/g
same,tissue uptake at 4 h,"[4]; blood, read-out: blood % ID/g",0.29 %ID/g
same,tissue uptake at 6 h,"[4]; blood, read-out: blood % ID/g",0.23 %ID/g
same,tissue uptake at 24 h,"[4]; blood, read-out: blood % ID/g",0.008 %ID/g
same,tissue uptake at 8 h,"[4]; blood, read-out: blood % ID/g",0.14 %ID/g
same,tissue uptake at 12 h,"[4]; blood, read-out: blood % ID/g",0.06 %ID/g
same,tissue uptake at 1 h,"[4]; brain, read-out: brain % ID/g",1.4 %ID/g
same,tissue uptake at 2 h,"[4]; brain, read-out: brain % ID/g",0.99 %ID/g
same,tissue uptake at 4 h,"[4]; brain, read-out: brain % ID/g",0.51 %ID/g
same,tissue uptake at 6 h,"[4]; brain, read-out: brain % ID/g",0.2 %ID/g
same,tissue uptake at 24 h,"[4]; brain, read-out: brain % ID/g",0.002 %ID/g
same,tissue uptake at 8 h,"[4]; brain, read-out: brain % ID/g",0.12 %ID/g
same,tissue uptake at 12 h,"[4]; brain, read-out: brain % ID/g",0.02 %ID/g
same,tissue uptake at 1 h,"[4]; eye, read-out: eye % ID/g",0.68 %ID/g
same,tissue uptake at 2 h,"[4]; eye, read-out: eye % ID/g",0.54 %ID/g
same,tissue uptake at 4 h,"[4]; eye, read-out: eye % ID/g",0.31 %ID/g
same,tissue uptake at 6 h,"[4]; eye, read-out: eye % ID/g",0.16 %ID/g
same,tissue uptake at 24 h,"[4]; eye, read-out: eye % ID/g",0.02 %ID/g
same,tissue uptake at 8 h,"[4]; eye, read-out: eye % ID/g",0.1 %ID/g
same,tissue uptake at 12 h,"[4]; eye, read-out: eye % ID/g",0.04 %ID/g
same,tissue uptake at 1 h,[4]; [6],3.74 %ID/g
same,tissue uptake at 2 h,[4]; [6],2.67 %ID/g
same,tissue uptake at 4 h,[4]; [6],1.1 %ID/g
same,tissue uptake at 6 h,[4]; [6],0.42 %ID/g
same,tissue uptake at 8 h,[4]; [6],0.38 %ID/g
same,tissue uptake at 12 h,[4]; [6],0.27 %ID/g
same,tissue uptake at 24 h,[4]; [6],0.01 %ID/g
same,tissue uptake at 1 h,[4]; [7],8.39 %ID/g
same,tissue uptake at 2 h,[4]; [7],5.12 %ID/g
same,tissue uptake at 4 h,[4]; [7],2.15 %ID/g
same,tissue uptake at 6 h,[4]; [7],0.78 %ID/g
same,tissue uptake at 24 h,[4]; [7],0.03 %ID/g
same,tissue uptake at 8 h,[4]; [7],0.32 %ID/g
same,tissue uptake at 12 h,[4]; [7],0.14 %ID/g
same,tissue uptake at 1 h,"[4]; liver, read-out: liver % ID/g",5.68 %ID/g
same,tissue uptake at 2 h,"[4]; liver, read-out: liver % ID/g",3.35 %ID/g
same,tissue uptake at 4 h,"[4]; liver, read-out: liver % ID/g",2.1 %ID/g
same,tissue uptake at 6 h,"[4]; liver, read-out: liver % ID/g",1.1 %ID/g
same,tissue uptake at 24 h,"[4]; liver, read-out: liver % ID/g",0.1 %ID/g
same,tissue uptake at 8 h,"[4]; liver, read-out: liver % ID/g",0.71 %ID/g
same,tissue uptake at 12 h,"[4]; liver, read-out: liver % ID/g",0.3 %ID/g
same,tissue uptake at 1 h,"[4]; lungs, read-out: lungs % ID/g",6.88 %ID/g
same,tissue uptake at 2 h,"[4]; lungs, read-out: lungs % ID/g",5.63 %ID/g
same,tissue uptake at 4 h,"[4]; lungs, read-out: lungs % ID/g",2.84 %ID/g
same,tissue uptake at 6 h,"[4]; lungs, read-out: lungs % ID/g",0.76 %ID/g
same,tissue uptake at 8 h,"[4]; lungs, read-out: lungs % ID/g",0.45 %ID/g
same,tissue uptake at 12 h,"[4]; lungs, read-out: lungs % ID/g",0.11 %ID/g
same,tissue uptake at 24 h,"[4]; lungs, read-out: lungs % ID/g",0.02 %ID/g
same,tissue uptake at 1 h,[4]; [8],1.28 %ID/g
same,tissue uptake at 2 h,[4]; [8],0.79 %ID/g
same,tissue uptake at 4 h,[4]; [8],0.32 %ID/g
same,tissue uptake at 6 h,[4]; [8],0.11 %ID/g
same,tissue uptake at 24 h,[4]; [8],0.006 %ID/g
same,tissue uptake at 8 h,[4]; [8],0.07 %ID/g
same,tissue uptake at 12 h,[4]; [8],0.02 %ID/g
same,tissue uptake at 1 h,[4]; [9],4.06 %ID/g
same,tissue uptake at 2 h,[4]; [9],2.29 %ID/g
same,tissue uptake at 4 h,[4]; [9],0.97 %ID/g
same,tissue uptake at 6 h,[4]; [9],0.41 %ID/g
same,tissue uptake at 8 h,[4]; [9],0.24 %ID/g
same,tissue uptake at 12 h,[4]; [9],0.13 %ID/g
same,tissue uptake at 24 h,[4]; [9],0.03 %ID/g
same,tissue uptake at 1 h,[4]; [10],0.55 %ID/g
same,tissue uptake at 2 h,[4]; [10],0.33 %ID/g
same,tissue uptake at 4 h,[4]; [10],0.24 %ID/g
same,tissue uptake at 6 h,[4]; [10],0.24 %ID/g
same,tissue uptake at 24 h,[4]; [10],0.007 %ID/g
same,tissue uptake at 8 h,[4]; [10],0.15 %ID/g
same,tissue uptake at 12 h,[4]; [10],0.06 %ID/g
same,tissue uptake at 1 h,[4]; [11],3.48 %ID/g
same,tissue uptake at 2 h,[4]; [11],1.95 %ID/g
same,tissue uptake at 4 h,[4]; [11],0.8 %ID/g
same,tissue uptake at 6 h,[4]; [11],0.3 %ID/g
same,tissue uptake at 8 h,[4]; [11],0.16 %ID/g
same,tissue uptake at 12 h,[4]; [11],0.07 %ID/g
same,tissue uptake at 24 h,[4]; [11],0.02 %ID/g
same,tissue uptake at 1 h,[4]; [12],2.32 %ID/g
same,tissue uptake at 2 h,[4]; [12],1.85 %ID/g
same,tissue uptake at 4 h,[4]; [12],1.36 %ID/g
same,tissue uptake at 6 h,[4]; [12],1.17 %ID/g
same,tissue uptake at 8 h,[4]; [12],0.71 %ID/g
same,tissue uptake at 12 h,[4]; [12],0.38 %ID/g
same,tissue uptake at 24 h,[4]; [12],0.03 %ID/g
same,tissue uptake at 1 h,[4]; [13],4.75 %ID/g
same,tissue uptake at 2 h,[4]; [13],3.56 %ID/g
same,tissue uptake at 4 h,[4]; [13],1.5 %ID/g
same,tissue uptake at 6 h,[4]; [13],0.86 %ID/g
same,tissue uptake at 8 h,[4]; [13],0.77 %ID/g
same,tissue uptake at 12 h,[4]; [13],0.3 %ID/g
same,tissue uptake at 24 h,[4]; [13],0.02 %ID/g
same,tissue uptake at 1 h,"[4]; tumor, read-out: tumor % ID/g",1.51 %ID/g
same,tissue uptake at 2 h,"[4]; tumor, read-out: tumor % ID/g",1.29 %ID/g
same,tissue uptake at 4 h,"[4]; tumor, read-out: tumor % ID/g",0.45 %ID/g
same,tissue uptake at 6 h,"[4]; tumor, read-out: tumor % ID/g",0.23 %ID/g
same,tissue uptake at 24 h,"[4]; tumor, read-out: tumor % ID/g",0.009 %ID/g
same,tissue uptake at 8 h,"[4]; tumor, read-out: tumor % ID/g",0.11 %ID/g
same,tissue uptake at 12 h,"[4]; tumor, read-out: tumor % ID/g",0.07 %ID/g
same,tissue uptake,"[4]; tumor, only during the 2 hours following injection, Dau, read-out: intratumoral concentration",> 1 %ID/g
same,images compared with ^125 I-A,[5],identical images
